According to patent US8518956B2, “1-(1-(2-ethoxyethyl)-3-ethyl-7-(4-methylpyridin-2-ylamino)-1H-pyrazolo[4,3-d]pyrimidin-5-yl) piperidine-4-carboxylic acid and salts thereof” (priority 2005, dated 2013):

Assays:
[1] = Method 11: Single Dose Pharmacokinetics and Oral Bioavailability in Male Sprague-Dawley Rat; format: in vivo; settings: mean; for AUC(0-inf) / clearance / half-life / Vd / Cmax / Tmax: plasma, 2 mg/kg; for Vd: read-out: Vdss; for F: po 2 mg/kg vs iv 2 mg/kg
Method: Repeat testing is recommended in order to establish a valid assay test result. P. Pharmacokinetic/Pharmacodynamic Study Method 11: Single Dose Pharmacokinetics and Oral Bioavailability in Male Sprague-Dawley Rat Following Intravenous and Oral Administration
An in vivo model can be used to evaluate the single dose pharmacokinetic properties and absolute oral bioavailability of a test compound. As described more specifically below, a test compound is administered to Sprague-Dawley (SD) rats either intravenously or orally in a crossover study design and the resulting pharmacokinetic properties and oral bioavailability are measured.
Male rats are administered a 2.0 mg/kg dose orally (n=2) by gavage as a suspension (0.5% methylcellulose/0.1% Tween 80 in distilled water). After a 72 hour wash-out periond, the same rats were administered 2.0 mg/kg dose bolus intravenously (n=2) as a solution (70% PEG 400/20% 0.05 M Citrate Buffer pH 3/10% Ethanol). Serial blood samples (for plasma) are collected from each rat over a 24 hour post dose for each route. […] Pharmacokinetic parameters of a test compound are determined from the plasma concentration-time data using non-compartmental methods. • LC/MS/MS: 1) Column: Hyperso; AQUASIL C-18 2.1×20 mm, 3.0 μm; 2) Mobile phase: Aqueous Water with 0.1% Formic Acid, Orgainic: Acetonitrile; Ionization: +ESI (API 4000). MRM: m/z 494.4→m/z 394.0 (Example 261 in WO2004096810), m/z 509.44→m/z 409.80 (Example 263 in WO2004096810), m/z 495.33→m/z 395.20 (Example 262 in WO2004096810). The detection limits are 0.12 ng/mL (Example 261 in WO2004096810), 1.3 ng/mL (Example 263 in WO2004096810) and 0.11 ng/mL (Example 262 in WO2004096810).
Watson (Version 6.4.0.04) is used to calculate mean test compound concentrations, corresponding standard deviations (SD), and percent coefficient of variation (% CV), and to estimate pharmacokinetic parameters (derived by noncompartmental methods) and associated statistics (mean, SD & CV %) if applicable. (Since n=2, no SD or CV calculated ?). Concentrations below the limit of quantitation (BLQ) are reported as zero (0) and are used in the evaluation of mean concentrations and the estimation of AUC. The peak plasma concentration (Cmax) and the time to reach peak concentration (tmax) are recorded directly from individual plasma concentration-time profiles. The terminal log-linear phase of the plasma concentration-time curve is identified by linear regression of data points. The terminal half-life (t1/2) is calculated as ln(2) divided by absolute value of the slope of the terminal log-linear phase. The area under the plasma concentration-time curve from time zero to time of the last quantifiable concentration (t) [AUC(0-t)] is determined using the linear trapezoidal method. The area under the plasma concentration-time curve from time zero to infinity [AUC(0-∞)] is determined as AUC(0-t) plus the extrapolated area. The extrapolated area is determined by dividing the last observed plasma concentration by the slope of the terminal log-linear phase. Systemic plasma clearance (CL) is calculated as dose/AUC(0-∞) while the volume of distribution at steady state (Vdss) is calculated as CL×MRT, where MRT (mean residence time) is defined as AUMC(0-∞)/AUC(0-∞). The absolute PO bioavailability (F) is calculated as a ratio of the dose-normalized AUC(0-∞) of individual animal after PO administration to the dose-normalized AUC(0-∞) of individual animal after IV administration given the crossover study design.

[2] = test system: Chinese hamster ovary (CHO) cells; assay: Method 7: Micronucleus Assay; format: cell-based; parameters: key: Negative: A negative result identifies no genotoxic hazard defined by the assays specific endpoint; Positive: A positive result identifies a genotoxic hazard defined by the assays specific endpoint; Equivocal: fails to display a negative or positive result as defined by established evaluation criteria; Inconclusive: the test compound has been evaluated in an invalid assay test; settings: in vitro, with and without S9
Method: Method 7: Micronucleus Assay
An in vitro micronucleus assay can be used to determine the mutagenic potential of a test compound. This assay detects chromosome abnormalities resulting from exposure to a test compound by measuring the formation of small membrane-bound DNA fragments such as micronuclei in the cytoplasm of interphase cells.
The assay is conducted using Chinese hamster ovary (CHO) cells under different test conditions in the absence and presence of metabolic activation. Concordance in outcomes between this screening assay and in vitro cytogenetics is around 85%. Direct (−S9) testing is conducted using 24 hour or 3 hour continuous treatments, whereas testing with metabolic activation (+S9) involves a 3 hour treatment. Clastogenicity is indicated by an increase in numbers of micronucleated cells in the first interphase after exposure (in cytokinesis-blocked binucleated cells). The results are compared to the level of cytotoxicity (measured by the proportion of binucleated cells) a test compound produces. […] A test compound displaying a negative response has not fulfilled specific evaluation criteria for the assay which may include one or both of the following: 1) a reproducible concentration dependent increase in the specific assay endpoint when compared to a negative (vehicle) control and/or 2) one or more test concentrations achieving a minimum fold increase in the specific endpoint over controls. • Positive—A positive result identifies a genotoxic hazard defined by the assays specific endpoint (ex. positive in vitro micronucleus). A test compound displaying a positive response has fulfilled specific evaluation criteria for the assay which may include one or both of the following: 1) a reproducible concentration dependent increase in the specific assay endpoint when compared to a negative (vehicle) control and/or 2) one or more test concentrations achieving a minimum fold increase in the specific endpoint over controls. • Equivocal—An equivocal result is reserved for situations where the test compound has been evaluated in a valid assay test or tests (i.e. assay acceptability criteria satisfactory), but fails to display a negative or positive result as defined by established evaluation criteria. This may convey the presence of a weak positive response that requires additional repeat testing or eventual confirmatory testing case-by-case. • Inconclusive—An inconclusive result is reserved for situations where the test compound has been evaluated in an invalid assay test (i.e. assay acceptability criteria unsatisfactory for technical reasons, ex. negative or positive controls fail to respond appropriately). Repeat testing is recommended in order to establish a valid assay test result.

Row | Compound | AUC(0-inf) ([1]; iv) [ng·h/mL] | clearance ([1]; iv) [mL/min/kg] | half-life ([1]; iv) [h] | Vd ([1]; iv) [L/kg] | AUC(0-inf) ([1]; po) [ng·h/mL] | Cmax ([1]; po) [ng/mL] | Tmax ([1]; po) [h] | half-life ([1]; po) [h] | F [1] [%] | METHOD 7: MICRONUCLEUS ASSAY [2] | METHOD 7: MI[…] [2]
1 | CCc1nn(CCOCC(F)(F)F)c2c(Nc3cc(C)ncn3)nc(N3CCC(C(=O)O)CC3)nc12 [WO2004096810 Example 263] | 555 | 60.1 | 4.5 | 5.07 | 329 | 102 | 0.33 | 3.8 | 60.0 | Positive | 
2 | Cc1cc(Nc2nc(N3CCC(C(=O)O)CC3)nc3c(C)nn(CCOCC(F)(F)F)c23)ncn1 [WO2004096810 Example 262] | 440 | 76.3 | 5.5 | 6.11 | 280 | 87.1 | 0.67 | 3.4 | 63.9 |  | Equivocal
3 | Cc1ccnc(Nc2nc(N3CCC(C(=O)O)CC3)nc3c(C)nn(CCOCC(F)(F)F)c23)c1 [WO2004096810 Example 261] | 19000 | 1.75 | 6.4 | 0.564 | 20000 | 2350 | 0.67 | 6.7 | 105 | Positive | 
